In patent US5733890A, “Adenylate analogs as potent anti-herpes virus agents” (National Science Council, priority 1996, dated 1998):
Converted amounts (≈) assume the structure as drawn. Like-named read-outs stand apart in the source and are kept apart here.

Key:
viral replication = settings: background; cited from earlier work
[1] = molecular target: T1, calf mucosal adenosine deaminase (EC 3.5.4.4) (Bos taurus, UniProt P56658); test: Deamination kinetics of compounds as substrates of adenosine deaminase; format: biochemical; settings: for complex formation with adenosine deaminase: Table 1; for adenosine deaminase substrate / deamination by / resistance to adenosine deaminase: in words; for rel Vmax: relative, 37 = 1; for deamination by / resistance to adenosine deaminase: in vitro
T1 construct: calf mucosal adenosine deaminase; from tissue; host or cells: calf mucosa
T1 sequence (P56658 1-363): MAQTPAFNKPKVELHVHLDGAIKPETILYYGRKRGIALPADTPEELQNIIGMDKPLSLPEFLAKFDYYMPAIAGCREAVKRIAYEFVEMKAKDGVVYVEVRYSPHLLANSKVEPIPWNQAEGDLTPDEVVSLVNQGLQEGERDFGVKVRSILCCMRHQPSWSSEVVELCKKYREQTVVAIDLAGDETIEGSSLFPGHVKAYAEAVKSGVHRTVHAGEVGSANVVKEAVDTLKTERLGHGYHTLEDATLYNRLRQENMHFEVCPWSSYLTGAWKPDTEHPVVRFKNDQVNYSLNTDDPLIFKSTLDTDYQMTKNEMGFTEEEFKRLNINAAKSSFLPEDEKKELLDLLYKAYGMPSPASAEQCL
Excerpt: (§1) By following an established procedure [Ogilvie, K. K.; Nguyen-Ba, N.; Gillen, M. F.; Radatus, B. K.; Cheriyan, U. O.; Hanna, H. R.; Smith, K. O.; Galloway, K. S. Synthesis of A Purine Acyclonucleoside Series Having Pronounced Antiviral Activity. The Glyceropurines. Can. J. Chem. 1984, 62, 241-252.], we determined the rates of deamination of VI, 13, 37, 40, and 42 in the presence of calf mucosal adenosine deaminase (EC 3.5.4.4) in buffer solutions.

[2] = molecular target: T1, calf mucosal adenosine deaminase (EC 3.5.4.4); test: Competitive inhibition of adenosine deaminase; format: biochemical; settings: for type of inhibition of adenosine deaminase / Ki: Ara-A 37 used as substrate; for Ki: Kaplan method
Excerpt: as §1

[3] = test system: herpes simplex type 2 virus (HSV-2); test: Inhibition of cytopathogenicity of HSV-2 in Hela cell culture; format: cell-based; settings: for IC50: read-out: IC50 HSV-2 (G)
Description: (§2) We tested the synthesized compounds for their inhibition of cytopathogenicity of herpes simplex type 1 virus (HSV-1), herpes simplex type 2 virus (HSV-2), and varicella-zoster virus (VZV) in Hela cell culture. These compounds include VI, 12, 13, 40, 42, a mixture of VI and 13 (1:1), ara-A 37, and a mixture of 13 and 37 (1:1). Toxicity of these compounds was evaluated by their ability to cause morphological changes in cells at different concentrations.

[4] = Partition coefficient (lipophilicity), 1-pentanol / phosphate buffer; settings: P = [Substrate]1-pentanol/[Substrate]H2O
Description: The layers were separated, and their concentrations were determined by an UV spectrophotometer.
^a Partition coefficients were calculated as follows:
P = [Substrate]1pentanol /[Substrate]H.sbsb.2O.

HSV-1, HSV-2 and VZV = test: Anti-herpes activity in Hela cell culture (all viruses of Table 3); format: cell-based; settings: for effect on antiviral activity by mixing with compound 13: mixed with compound 13 (Table 3)
Description: as §2

[5] = Toxicity: morphological changes in Hela cells; format: cell-based; settings: human; Hela cells; average of triplicate determinations; read-out: IC50 Hela cell (concentration required to cause microscopically visible change or disruption in about 50% of the cell sheet)
Description: as §2
(§3) ^b Concentration of the compound required to cause microsopically
(§4) visible change or disruption in about 50% of the cell sheet; and […]

[6] = Solubility in H2O (phosphate buffer); settings: for solubility in H2O: phosphate buffer 0.10M, 20 h, UV absorbance; for solubility at 20 h: 0.10 m phosphate buffer, aqueous buffer; for water solubility (in words): from Table 2
Description: Each compound (70 mg) listed in Table 2 was agitated in a 25-mL volumetric flask with phosphate buffer (0.10M, 5.0 mL) for 20 h. This solution was filtered from undissolved solid through a sintered glass funnel (4.0-5.5 mesh ASTM) and the concentration of the solution was determined by UV absorbance (Table 2).

[7] = test system: varicella-zoster virus (VZV); test: Inhibition of cytopathogenicity of VZV in Hela cell culture; format: cell-based; settings: for IC50: read-out: IC50 VZV (YS)
Description: as §2

[8] = test system: herpes simplex type 1 virus (HSV-1); test: Inhibition of cytopathogenicity of HSV-1 in Hela cell culture; format: cell-based; settings: for IC50: read-out: IC50 HSV-1 (KOS)
Description: as §2

Hela cell = test: Toxicity: morphological changes in Hela cells; format: cell-based; settings: in comparison with Ara-A 37
Description: as §2, §3, §4

adenosine deaminase = settings: background; cited from earlier work
acute type B hepatitis = settings: background; cited from earlier work
[9] = background; cited from earlier work
[10] = Human alphaherpesvirus 2, strain G, Hela cell culture, average of triplicate determinations
[11] = Human alphaherpesvirus 3, strain YS, Hela cell culture, average of triplicate determinations
[12] = Human alphaherpesvirus 1, strain KOS, Hela cell culture, average of triplicate determinations

Nc1ncnc2c1ncn2COCCO [VI, Acyclic adenosine, reference compound]
inhibition of viral replication (viral replication): can inhibit viral replication
complex formation with adenosine deaminase [1]: can form a complex
adenosine deaminase substrate [1]: adenosine deaminase substrates
rel Vmax [1]: 1.52 × 10^-2
type of inhibition of adenosine deaminase [2]: competitive inhibition
Ki [2]: 142 µM
IC50 [3, 10]: 8.26 µg/mL (≈ 39.5 µM)
log P [4]: 0.98
effect on antiviral activity by mixing with compound 13 (HSV-1, HSV-2 and VZV): synergistic effect
CC50 [5]: 266 µg/mL (≈ 1270 µM)
solubility in H2O [6]: 1950 µg/mL (≈ 9320 µM)
IC50 [7, 11]: 6.5 µg/mL (≈ 31.1 µM)
IC50 [8, 12]: 4.43 µg/mL (≈ 21.2 µM)

CCOP(=O)(O)CCOCn1cnc2c(N)ncnc21.N [Compound 12, Ammonium Ethyl [2-[(Adenin-9-yl)methoxy]ethyl]phosphonate]
antiviral activity against HSV-2 (in words) ([3]; Hela cell culture): exhibit antiviral activity
IC50 ([3]; Human alphaherpesvirus 2, HeLa): 13.8 µg/mL
CC50 [5]: 176 µg/mL
cellular toxicity (in words) (Hela cell): lower cellular toxicity
antiviral activity against VZV (in words) ([7]; Hela cell culture): exhibit antiviral activity
IC50 ([7]; Human alphaherpesvirus 3, HeLa): 25 µg/mL
antiviral activity against HSV-1 (in words) ([8]; Hela cell culture): exhibit antiviral activity
IC50 ([8]; Human alphaherpesvirus 1, HeLa): 11.3 µg/mL

COC(=O)C(C)NP(=O)(CCOCn1cnc2c(N)ncnc21)OC1C(CO)OC(n2cnc3c(N)ncnc32)C1O [Compound 42, 9-(β-D-Arabinofuranosyl)adenine-3'-[(Methoxyalaninyl)[2-(adenin-9-ylmethoxy)ethyl]phosphonates]]
Km ([1]; adenosine deaminase substrate, buffer solutions): > 1500 µM
deamination by / resistance to adenosine deaminase [1]: completely resisted deamination
antiviral activity against HSV-2 (in words) ([3]; Hela cell culture): exhibit antiviral activity
IC50 [3, 10]: 0.88 µg/mL (≈ 1.45 µM)
log P [4]: 0.87
antiviral activity (in words) (HSV-1, HSV-2 and VZV; Table 3): superior antiviral activity
CC50 [5]: 215 µg/mL (≈ 355 µM)
cellular toxicity (in words) (Hela cell): lower cellular toxicity
solubility at 20 h [6]: 8250 µg/mL (≈ 13600 µM)
water solubility (in words) [6]: higher water solubility
antiviral activity against VZV (in words) ([7]; Hela cell culture): exhibit antiviral activity
IC50 [7, 11]: 4.82 µg/mL (≈ 7.93 µM)
antiviral activity against HSV-1 (in words) ([8]; Hela cell culture): exhibit antiviral activity
IC50 [8, 12]: 0.38 µg/mL (≈ 0.625 µM)

Nc1ncnc2c1ncn2COCCP(=O)(O)O[C@H]1[C@H](O)[C@H](n2cnc3c(N)ncnc32)O[C@@H]1CO [Compound 40, 9-(β-D-Arabinofuranosyl)adenine-3'-[[2-(Adenin-9-ylmethoxy)ethyl]phosphonate]]
deamination by / resistance to adenosine deaminase [1]: slow rate of deamination
adenosine deaminase substrate [1]: a substrate of adenosine deaminase
rel Vmax [1]: 7.64 × 10^-2
Vmax less than that of Ara-A 37 ([1]; versus Ara-A 37): 92%
antiviral activity against HSV-2 (in words) ([3]; Hela cell culture): exhibit antiviral activity
IC50 [3, 10]: 16.3 µg/mL (≈ 31.2 µM)
log P [4]: -0.68
CC50 [5]: 346 µg/mL (≈ 662 µM)
cellular toxicity (in words) (Hela cell): lower cellular toxicity
water solubility (in words) [6]: higher water solubility
solubility in H2O [6]: 2460 µg/mL (≈ 4710 µM)
antiviral activity against VZV (in words) ([7]; Hela cell culture): not active against VZV
IC50 [7, 11]: > 128 µg/mL
antiviral activity against HSV-1 (in words) ([8]; Hela cell culture): exhibit antiviral activity
IC50 [8, 12]: 8.97 µg/mL (≈ 17.2 µM)

Nc1ncnc2c1ncn2[C@@H]1O[C@H](CO)[C@@H](O)[C@@H]1O [Compound 37, 9-(β-D-arabinofuranosyl)adenine, reference compound]
inhibition of viral replication (viral replication): can inhibit viral replication
complex formation with adenosine deaminase [1]: can form a complex
rel Vmax [1]: 1
IC50 [3, 10]: > 128 µg/mL
log P [4]: -0.47
effect on antiviral activity by mixing with compound 13 (HSV-1, HSV-2 and VZV): synergistic effect
conversion in vivo to hypoxanthine (Ara-Hx) via deamination by adenosine deaminase (adenosine deaminase): converted in vivo to hypoxanthine (Ara-Hx)
potency in treating a patient having acute type B hepatitis (acute type B hepatitis): potent
CC50 [5]: 98.8 µg/mL (≈ 370 µM)
lipophilicity (in words) [9]: poor lipophilicity
solubility at 20 h [6]: 400 µg/mL (≈ 1500 µM)
IC50 [7, 11]: > 128 µg/mL
IC50 [8, 12]: 10.8 µg/mL (≈ 40.4 µM)

Nc1ncnc2c1ncn2COCCP(=O)(O)O [Compound 13, 2-[(Adenin-9-yl)methoxy]ethylphosphonic Acid]
adenosine deaminase substrate [1]: adenosine deaminase substrates
rel Vmax [1]: 1.49 × 10^-6
Vmax compared with that of VI (times less) ([1]; versus VI): ~ 10^-4 times less
type of inhibition of adenosine deaminase [2]: competitive inhibition
Ki [2]: 18.2 µM
inhibition of adenosine deaminase (in words) ([2]; Table 1): inhibits adenosine deaminase
efficiency as inhibitor of adenosine deaminase versus acyclonucleoside VI ([2]; compared with VI): acted more efficiently than acyclonucleoside VI
antiviral activity against HSV-2 (in words) ([3]; Hela cell culture): exhibit antiviral activity
IC50 [3, 10]: 5.86 µg/mL (≈ 21.5 µM)
log P [4]: 0.07
CC50 [5]: 215 µg/mL (≈ 787 µM)
cellular toxicity (in words) (Hela cell): lower cellular toxicity
water solubility (in words) [6]: higher water solubility
solubility in H2O [6]: 13640 µg/mL (≈ 49900 µM)
antiviral activity against VZV (in words) ([7]; Hela cell culture): exhibit antiviral activity
IC50 [7, 11]: 16 µg/mL (≈ 58.6 µM)
antiviral activity against HSV-1 (in words) ([8]; Hela cell culture): exhibit antiviral activity
IC50 [8, 12]: 3.98 µg/mL (≈ 14.6 µM)
